Here are results for one compound from patent US20080114038A1 (priority 2004, published 2008).

Experiment [1] concerns edema of the paw induced by carragenine. Description: Edema of rat paws induced by carragenine. The class given is in vivo, male rats of the Wistar type. Particulars: i.p. 30 minutes before carragenine 1%; molar dose equivalent to diclofenac; paw volume up to 4 hours. As for the experimental part:
For the performance of this one test, animals, such as, for example, male rats of the Wistar type were used, which weighed between 150-180 g. These rats were acquired from CEMIB/UNICAMP.
Five rats were treated with the diclofenac, five rats with the modified diclofenac and five rats with the DMSO vehicle.
After a period of approximately 30 minutes, the animals were inoculated with an intraplantary injection of approximately 0.1 mL of a solution of carragenine 1% in saline solution, at the right hind paw, while the contralateral paw received the same volume but only of the saline solution.
The quantification of the volume of the paw was performed by means of an adequate instrument, such as, for example a pletismometer. The volume of the paws was checked before the administration of the carragenine (T0) and after 30 minutes, 1, 2, 3 and 4 hours. The T0 value was subtracted from the other values arrived at.

Another experiment has as its target COX-1 (Homo sapiens, UniProt P23219). Particulars: read-out: concentration responsible for the inhibition of 50% of the production of TXA2 (IC50); human whole blood without anticoagulant, 37° C., 1 hour, serum.

pIC50: −log10 of the molar value.

Sequence of COX-1 (P23219 24-599): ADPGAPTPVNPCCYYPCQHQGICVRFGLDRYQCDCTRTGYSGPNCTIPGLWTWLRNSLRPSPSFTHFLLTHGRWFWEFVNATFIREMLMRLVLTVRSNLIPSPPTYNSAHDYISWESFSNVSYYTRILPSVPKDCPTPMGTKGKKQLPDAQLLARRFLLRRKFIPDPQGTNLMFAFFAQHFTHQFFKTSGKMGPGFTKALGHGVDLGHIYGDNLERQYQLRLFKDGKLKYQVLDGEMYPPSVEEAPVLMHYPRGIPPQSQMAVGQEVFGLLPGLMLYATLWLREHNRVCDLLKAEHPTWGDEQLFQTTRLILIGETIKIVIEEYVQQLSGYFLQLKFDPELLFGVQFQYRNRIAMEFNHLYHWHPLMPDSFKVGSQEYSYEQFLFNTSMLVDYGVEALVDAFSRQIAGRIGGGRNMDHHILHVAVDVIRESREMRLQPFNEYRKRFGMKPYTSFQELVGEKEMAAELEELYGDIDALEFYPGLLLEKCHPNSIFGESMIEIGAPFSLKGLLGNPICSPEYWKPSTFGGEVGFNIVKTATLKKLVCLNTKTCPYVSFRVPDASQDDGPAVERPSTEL

For `O=C(Cc1ccccc1Nc1c(Cl)cccc1Cl)OCc1ccc2c(c1)no[n+]2[O-]` [modified diclofenac, [2-(2,6-dichloro-phenylamino)-phenyl]-acetic acid 1-oxy-benzo[1,2,5]oxadiazol-5-ylmethyl ester], in experiment [1], the “inhibition of the edema of the paw induced by carragenine (paw volume, FIG. 1)” value is “capable of inhibiting the edema of the paw induced by carragenine in the same way that the standard diclofenac”. In addition, the pIC50 at COX-1 was approximately 4.39.
